Literature values as cited in patent US20090223408A1, “Use of Sub-Micron Copper Salt Particles in Wood Preservation” (PhibroWood, LLC, priority 2004, published 2009).
Read-outs that look alike come from different tables or passages of the source.

Columns and labels:
[1] = baseline about 4 mg copper per liter

Row | Compound | leachate copper concentration relative to CCA baseline [1] | Solubility of copper (pH 4) [ppm] | Solubility of copper (pH 7) [ppm] | Solubility of copper (pH 10)
1 | copper citrate | over fifteen times the baseline concentration | – | – | –
2 | [OH][Cu][OH] [copper hydroxide, copper(II) hydroxide] | – | 640 | 2 | about 0.01 ppm
